Source: US20150267174A1, “REPROGRAMMING PEPTIDE AND USE THEREOF” (priority 2012, published 2015)
Square brackets hold non-standard residues; d marks the D form. Cysamide = C-terminal cysteamide

Tests used:
Format in all cases: cell-based
[1] = test system: Human adult fibroblast strain TIG113; experiment: Spheroid formation after reverse transfection of peptide into fibroblasts; details: for spheroid formation ability (in words): reverse transfection, TIG113; for degree of spheroid formation: number of ES cell colony-like spheroids, peptide 30 μg/well solid-phased on 12 well plate, 2×10^4 cells seeded, measured 7-10 days later
Description: Human adult fibroblast strain TIG113 was cultured in a medium mainly containing 10% fetal bovine serum-containing EMEM under humidified conditions at 37° C. and 5% CO2 until it reached 1×10^7 cells. A plate for reverse transfection was prepared by applying each peptide shown in Table 1 to each well of a 12 well plate at a concentration of 30 μg/well, and forming a solid phase by air-drying. Grown TIG113 was washed with CMF-PBS, and incubated in 0.25% trypsin solution at 37° C. for 10-15 min to dissociate the cells. Centrifugation and washing with PBS were repeated twice and the cells were suspended in iPS medium (manufactured by ReproCELL Incorporated). Using the cell suspension, human fibroblast was seeded at 2×10^4 cells on a plate for reverse transfection. As a reverse transfection medium, an iPS medium containing 10% fetal bovine serum and not containing bFGF was used. The number of ES colony-like spheroids formed was measured 7-10 days later, and the spheroid formation degree was evaluated (Table 1). In an experiment using the peptides of H11, H16, and H29, the ratio of the cells forming spheroid was calculated.

[2] = test system: Human adult fibroblast strain TIG113; experiment: CD105/CD146/CD31 antibody staining of spheroid cells
Description: The pluripotent spheroid cell obtained in Example 1 by introducing a reprogramming peptide into a differentiated cell was examined for undifferentiation, and expressions of nerve marker and the like.
Using the H11 peptide shown in Table 1, the cells were made to form spheroid according to the method shown in Example 1 and incubated using 1% H2O2-containing methanol at room temperature for 5 min, and immobilized.
Using the antibody described in Table 3, cells were stained according to a package insert. As the secondary antibody, HRP-labeled goat anti-mouse IgG antibody (manufactured by Promega KK, Goat Anti-Mouse IgG (H+L), HRP Conjugate) was used.

[3] = test system: human fibroblast (manufactured by KURABO INDUSTRIES LTD.); experiment: Spheroid formation and marker expression using human adult fibroblast
Text: Using a method similar to that of Example 1, H11 peptide was introduced into human fibroblast (manufactured by KURABO INDUSTRIES LTD.).
The prepared spheroid was subjected to expression analysis of pluripotency marker and differentiation marker according to the method of Example 2. As a result, it was positive to pluripotency markers of alkaline phosphatase, SSEA-3, TRA-1-61, Oct3/4, Sox2, and Nanog. Furthermore, the expression of neural stem cell marker nestin, nerve marker neurofilament 160, βIII tubulin, MAP2, and GFAP was confirmed by continuous culture. Furthermore, the expression of insulin producing cell marker proinsulin, and C-peptide was also confirmed.

H293 cell = experiment: Spheroid formation and marker staining in various cells
Text: (§1) By a method similar to that of Example 1, H11 peptide was introduced into BHK21, A549, H293 cell, mouse feeder cell (COSMO BIO co., ltd.: RCHEFC003), bovine vascular endothelial cell (TOYOBO CO., LTD.: CAB300K05), and swine vascular endothelial cell (TOYOBO CO., LTD.: CAP300K05).

[4] = test system: bovine vascular endothelial cell; experiment: as above
Text: as §1

A549 = experiment: as above
Text: as §1

BHK21 = experiment: as above
Text: as §1

[5] = test system: swine vascular endothelial cell; experiment: as above
Text: as §1

mouse feeder cell = experiment: as above
Text: as §1

[6] = test system: Human adult fibroblast strain TIG113; experiment: Marker expression (immunostaining, alkaline phosphatase staining) of spheroid cells
Description: The pluripotent spheroid cell obtained in Example 1, by introducing a reprogramming peptide into differentiated cell, was examined for undifferentiation, expression of nerve marker and the like.
Using the H11 peptide shown in Table 1, the cells were made to form spheroid according to the method shown in Example 1, and incubated in 1% H2O2 containingmethanol at room temperature for 5 min to immobilize the cells. The cells were washed five times with PBS, and blocked with PBS containing 5% FBS/0.05% gelatin/3% skim milk/1% BSA (hereinafter Block Ace) at room temperature for 1-2 hr. Furthermore, the cells were reacted at room temperature for 2 hr with the primary antibody shown in Table 2 and appropriately diluted with Block Ace. The cells were washed five times with PBS, and the HPR-labeled secondary antibody was appropriately diluted with Block Ace and reacted at room temperature for 1 hr. Lastly, the cells were washed five times with PBS, and the antigen was visualized according to the protocol of Peroxidase Stain DAB Kit &enhancer (Nacalai Tesque).
For alkaline phosphatase staining, the cells immobilized by the aforementioned method were incubated at room temperature for 30 min using BCIP/NBT Color Development Substrate (Promega). The reaction was quenched by washing five times with PBS.

Substance: Ac-GALFLGFLGAAGSTMGA-Cysamide [H13]
- spheroid formation ability (in words) [1]: no spheroid formation ability

Substance: Ac-GALFLGFLGAAGSTMGA/WSQ/KKRTLRKNDRKKR-Cysamide (Ac-GALFLGFLGAAGSTMGAWSQKKRTLRKNDRKKR-Cysamide) [H36]
- degree of spheroid formation [1]: +++ (+++ about 50-100)

Substance: Ac-GALFLGFLGAAGSTMGA/WSQ/RSRKYTSWYVALKR-Cysamide (Ac-GALFLGFLGAAGSTMGAWSQRSRKYTSWYVALKR-Cysamide) [H37]
- degree of spheroid formation [1]: +++ (+++ about 50-100)

Substance: Ac-GALFLGFLGAAGSTMGAWSQGKKRSKA-Cysamide [H29]
- degree of spheroid formation [1]: +++ (+++ about 50-100)
- spheroid formation ability (in words) [1]: has spheroid formation ability

Substance: Ac-GALFLGFLGAAGSTMGAWSQPKKKRKV-Cysamide [H11]
- degree of spheroid formation [1]: +++ (+++ about 50-100)
- mesenchymal stem cell marker CD105 [2]: positive
- pericyte marker CD146 [2]: positive
- vascular endothelial cell marker CD31 [2]: negative
- expression of alpha-fetoprotein and albumin [3]: confirmed
- expression of proinsulin and C-peptide [3]: confirmed
- oil red O staining [3]: differentiation into adipose tissue was found
- expression of nestin, neurofilament 160, βIII tubulin, MAP2, GFAP ([3]; continuous culture): confirmed
- spheroid formation ([3]; human fibroblast (KURABO)): finally formed spheroid
- pluripotency markers alkaline phosphatase, SSEA-3, TRA-1-61, Oct3/4, Sox2, Nanog ([3]; prepared spheroid): positive
- alkaline phosphatase, SSEA-3 staining (H293 cell): positive
- spheroid formation (H293 cell): formed spheroids
- alkaline phosphatase, SSEA-3 staining [4]: positive
- spheroid formation [4]: formed spheroids
- alkaline phosphatase, SSEA-3 staining (A549): positive
- spheroid formation (A549): formed spheroids
- alkaline phosphatase, SSEA-3 staining (BHK21): positive
- spheroid formation (BHK21): formed spheroids
- alkaline phosphatase, SSEA-3 staining [5]: positive
- spheroid formation [5]: formed spheroids
- alkaline phosphatase, SSEA-3 staining (mouse feeder cell): positive
- spheroid formation (mouse feeder cell): formed spheroids
- expression of pluripotent markers alkaline phosphatase, Oct3/4, Sox2, Nanog, SSEA-3, Tra-1-81 ([6]; spheroid cells from TIG113): express
- expression of proinsulin and C-peptide (insulin producing cell markers) ([6]; spheroid cells from TIG113): confirmed
- expression of nestin, neurofilament 160, βIII tubulin, MAP2, GFAP ([6]; when the culture period becomes long): confirmed

Substance: Ac-GALFLGFLGAAGSTMGAWSQPKSKRKV-Cysamide [H6]
- degree of spheroid formation [1]: + (+ about −10)

Substance: Ac-GALFLGFLGAAGSTMGAmSQPKSKRKV-Cysamide (Ac-GALFLGFLGAAGSTMGA[dM]SQPKSKRKV-Cysamide) [H10]
- degree of spheroid formation [1]: + (+ about −10)

Substance: Ac-PKKKRKV-Cysamide [H18, SV40 Large T antigen NLS]
- spheroid formation ability (in words) [1]: Spheroid is not formed

Substance: Ac-RQIKIWFQNRRMKWKKWSQGKKRSKA-Cysamide [H31]
- degree of spheroid formation [1]: + (+ about −10)

Substance: GALFLGFLGAAGSTMGAWSQPKSKRKV (Reprogramming peptide) [H1]
- degree of spheroid formation [1]: ++ (++ about 10-50)

Substance: GALFLGFLGAAGSTMGAmSQPKSKRKV (GALFLGFLGAAGSTMGAMSQPKSKRKV; not fully specified; D-Met; Reprogramming peptide) [H5]
- degree of spheroid formation [1]: + (+ about −10)
